For one experiment, the target named is T1, FLT3(K663Q) (Homo sapiens, UniProt P36888, K663Q).
T1 sequence (P36888 27-993 K663Q): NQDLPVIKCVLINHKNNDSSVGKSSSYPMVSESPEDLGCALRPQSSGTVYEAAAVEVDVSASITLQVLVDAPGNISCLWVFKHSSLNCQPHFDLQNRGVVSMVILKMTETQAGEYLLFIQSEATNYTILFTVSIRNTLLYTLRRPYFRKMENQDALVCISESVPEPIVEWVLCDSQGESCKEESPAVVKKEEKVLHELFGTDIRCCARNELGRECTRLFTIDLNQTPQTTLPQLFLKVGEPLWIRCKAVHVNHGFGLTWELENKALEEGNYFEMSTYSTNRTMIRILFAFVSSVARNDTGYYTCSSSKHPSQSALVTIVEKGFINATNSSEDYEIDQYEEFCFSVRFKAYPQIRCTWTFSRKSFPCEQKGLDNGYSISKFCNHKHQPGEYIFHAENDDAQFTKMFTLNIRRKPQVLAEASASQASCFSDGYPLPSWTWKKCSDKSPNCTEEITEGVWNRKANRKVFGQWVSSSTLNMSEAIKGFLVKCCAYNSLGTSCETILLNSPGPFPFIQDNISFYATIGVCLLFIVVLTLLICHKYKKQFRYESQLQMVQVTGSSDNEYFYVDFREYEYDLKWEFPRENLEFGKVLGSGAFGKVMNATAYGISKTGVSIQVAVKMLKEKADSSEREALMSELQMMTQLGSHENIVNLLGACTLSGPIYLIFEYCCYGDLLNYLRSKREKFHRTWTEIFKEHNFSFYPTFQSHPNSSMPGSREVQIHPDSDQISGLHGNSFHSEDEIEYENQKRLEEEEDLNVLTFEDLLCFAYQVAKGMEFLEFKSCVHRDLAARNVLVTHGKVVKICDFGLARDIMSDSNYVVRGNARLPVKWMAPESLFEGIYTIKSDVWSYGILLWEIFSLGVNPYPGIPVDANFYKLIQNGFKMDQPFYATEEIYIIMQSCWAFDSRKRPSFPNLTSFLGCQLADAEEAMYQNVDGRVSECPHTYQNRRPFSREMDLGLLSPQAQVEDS
In kind it is binding.

The target in another experiment is T2, FLT3(D835H) (Homo sapiens, UniProt P36888, D835H).
T2 sequence (P36888 27-993 D835H): T1 sequence (P36888 27-993 K663Q) with Q637K, D809H
In kind it is binding.

Numbering of substitutions follows the chain as printed.

A word on the Kd: it is the concentration at which binding is half-saturated. The low end stands for tighter binding, the high end for weaker binding.

As for `CCc1nc(C(N)=O)c(Nc2ccc(N3CCC4(CCN(C)CC4)CC3)c(C)c2)nc1NC1CCOCC1.O=C(O)C(F)(F)F`, the Kd is 10 nM on FLT3(K663Q) (FLT3(K663Q)) and 2.3 nM at FLT3(D835H). Further, the “activity higher than that of the known compound B” value on FLT3(K663Q) (FLT3 (K663Q), ratio of Kd versus compound B) was 5.9 times.

Values taken from patent US20230141887A1, “CRYSTAL FORM OF DIAZASPIROPYRAN COMPOUND” (MEDSHINE DISCOVERY INC., priority 2020, published 2023).
